US12268777B2, “Compositions and methods for treating eosinophilic disorders” (The Regents of the University of California, priority 2019, dated 2025)

Tests used:
[1] = system: nonalcoholic steatohepatitis (NASH); settings: compared to placebo; cited from earlier work
[2] = in vivo; cited from earlier work
[3] = system: EoE-derived primary esophageal fibroblasts; experiment: Western immunoblot of pro-fibrotic protein expression in EoE-derived esophageal fibroblasts; format: cell-based, human
Procedure: Reagents, human esophageal tissues, and primary human esophageal fibroblast isolation TGF-β1 (5 ng/mL; R&D Systems, Minneapolis, MN), rosiglitazone (20 μM; Abcam, Boston, MA), pioglitazone (20 μM; Sigma-Aldrich, St. Louis, MO), budesonide (0.1 μM; St. Louis, MO), and IL-4 (10 ng/mL; R&D Systems, Minneapolis, MN) were used in cell culture experiments. […] Active EoE was defined as greater than or equal to 15 eosinophils per hpf. Human organ transplant donor esophagi served as normal controls and were provided by the National Disease Research Interchange and the Arkansas Regional Organ Recovery Agency Control. […]
Adherent cells were washed with ice-cold phosphate-buffered saline containing 1 mM sodium orthovanadate (Na3VO4) and lysed in ice-cold RIPA lysis buffer freshly prepared and supplemented with 1 mM Na3VO4, complete protease inhibitor cocktail, and 2 mM phenylmethylsulfonyl fluoride. […] Equivalent amounts of total proteins were loaded into each well and electrophoresed on NuPAGE 4-12% Bis-Tris gels (Life Technologies, Grand Island, NY), transferred to polyvinylidene difluoride membranes, blocked with 5% bovine serum albumin, incubated with primary antibodies overnight (1:1,000) at 4° C., detected using species-appropriate horseradish peroxidase-conjugated secondary antibodies, and quantified as previously described (Rawson et al., J. Allergy Clin. Immunol., 138:791-800, 2016).

[4] = system: EoE-derived primary esophageal fibroblasts; experiment: qPCR of pro-fibrotic gene expression in EoE-derived esophageal fibroblasts stimulated with TGF-β1; settings: at the concentrations used, up to 20 μM
Procedure: Reagents, human esophageal tissues, and primary human esophageal fibroblast isolation TGF-β1 (5 ng/mL; R&D Systems, Minneapolis, MN), rosiglitazone (20 μM; Abcam, Boston, MA), pioglitazone (20 μM; Sigma-Aldrich, St. Louis, MO), budesonide (0.1 μM; St. Louis, MO), and IL-4 (10 ng/mL; R&D Systems, Minneapolis, MN) were used in cell culture experiments.
Cell culture and stimulation. Human esophageal fibroblast cells were matched as closely as possible for sex, race, and passage. At sub-confluence, cells were serum starved overnight and treated with a TZD, budesonide, a combination, or vehicle for 2-3 hours followed by incubation with TGF-β1 or vehicle.
Preparation of total RNA and cDNA and quantitative PCR. Total RNA from fibroblast cultures was extracted using RNA STAT-60 (Tel-Test, Inc., Friendswood, TX) protocol, and oligo(dT)-primed cDNA was synthesized as previously described using the Qiagen RT-PCR kit and manufacturer's instructions. Quantitative real-time PCR (qPCR) primers are listed in Table 3; qPCR was carried out as previously described using the appropriate gene-specific primers, and relative gene expression was calculated using the method, with glyceraldehyde 3-phosphate dehydrogenase (gapdh) as the housekeeping gene (Rawson et al., J. Allergy Clin. Immunol., 138:791-800, 2016).

[5] = system: normal esophageal fibroblasts; experiment: Western immunoblot of pro-fibrotic protein expression in normal esophageal fibroblasts; format: cell-based, human; settings: 20 μM, N=3
Procedure: Cell culture and stimulation.
Western immunoblot analysis. Adherent cells were washed with ice-cold phosphate-buffered saline containing 1 mM sodium orthovanadate (Na3VO4) and lysed in ice-cold RIPA lysis buffer freshly prepared and supplemented with 1 mM Na3VO4, complete protease inhibitor cocktail, and 2 mM phenylmethylsulfonyl fluoride. Whole cell lysates were centrifuged at 14,000 g for 15 minutes at 4° C.

SMILES | drug-related adverse events [1] | tolerability [1] | cardiac effect [2] | TGFβ1-induced protein expression of collagen-1α1 ([3]; EoE fibroblasts from 2 patients, budesonide 0.1 μM) | toxicity (housekeeper gene expression, responses in normal fibroblasts) [4] | TGF-β1-induced protein expression of collagen-1α1 [5] | TGF-β1-induced protein expression of α-sma [5] | basal protein expression of α-sma ([3]; EoE fibroblasts, 20 μM)
CCc1ccc(CCOc2ccc(CC3SC(=O)NC3=O)cc2)nc1 (stereo not drawn) [pioglitazone] | no major drug-related adverse events | well tolerated | cardioprotective effect |  |  |  |  | 
CCCC1O[C@@H]2C[C@H]3[C@@H]4CCC5=CC(=O)C=C[C@]5(C)[C@H]4[C@@H](O)C[C@]3(C)[C@]2(C(=O)CO)O1 (stereo partly drawn) [budesonide, 16,17-(butylidenebis(oxy))-11,21-dihydroxy-, (11-β,16-α)-pregna-1,4-diene-3,20-dione] |  |  |  | no effects |  |  |  | 
CN(CCOc1ccc(CC2SC(=O)NC2=O)cc1)c1ccccn1 (stereo not drawn) [rosiglitazone] |  |  | myocardial infarction risk was subsequently disproven |  | not due to toxicity | did not inhibit | did not inhibit | did not inhibit
